Assay results: patent publication US7713994B2 (Wyeth LLC, priority 2005, dated 2010)
Read-outs that look alike come from different tables or passages of the source.

Columns and labels:
[1] = biological target: T1, cyclin B/CDK1 enzyme (Homo sapiens, UniProt P06493); test: CDK1 ELISA kinase assay (phospho-Rb ser 795 detection); format: biochemical; conditions: In Vitro Enzyme Assays, read-out: CDK1 IC50
T1 construct: purchased New England BioLabs; host or cells: Sf9 insect cells, recombinant baculovirus
Method in brief: (§1)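 ELISA format: plate-bound GST-Rb, 200 μM ATP, Sf9 cyclin/CDK enzyme, 1 h at 30° C; then anti-pRb Ser795 primary overnight at 4° C, HRP secondary, TMB. IC50 after no-substrate background subtraction.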

[2] = biological target: T2, cyclin E/CDK2 enzyme (Homo sapiens, UniProt P24941); test: CDK2 ELISA kinase assay (phospho-Rb ser 795 detection); format: biochemical
T2 construct: made in house; host or cells: Sf9 insect cells, recombinant baculovirus
Method in brief: as §1

[3] = biological target: T3, cyclin D1/cdk 4 enzyme (Homo sapiens, UniProt P11802); test: CDK4 ELISA kinase assay (phospho-Rb ser 795 detection); format: biochemical; conditions: In Vitro Enzyme Assays, 200 μM ATP, read-out: CDK4 IC50
T3 construct: made in house; host or cells: Sf9 insect cells, recombinant baculovirus
Method in brief: as §1

[4] = system: MCF-7; test: Cytotoxicity assay (SRB), MCF-7; format: cell-based; conditions: Homo sapiens, MCF7, 72 h, read-out: In Vitro Cellular Activity IC50 MCF-7
Method in brief: (§2)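 Seeding: BT474 12000, HCT-116 4000, LoVo 6000, MCF-7 6000 cells/well; overnight attachment, 37 °C, 7% CO2. Drug exposure 3 d (BT474 6 d), RPMI 1640 + 5% FBS. Readout: TCA fix, 0.4% SRB, Tris solubilisation, A540.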

[5] = system: LoVo; test: Cytotoxicity assay (SRB), LoVo; format: cell-based; conditions: Homo sapiens, LoVo, 72 h, read-out: In Vitro Cellular Activity IC50 LOVO
Method in brief: as §2

[6] = system: HCT-116; test: Cytotoxicity assay (SRB), HCT-116; format: cell-based; conditions: Homo sapiens, HCT-116, 72 h, read-out: In Vitro Cellular Activity IC50 HCT116
Method in brief: as §2

[7] = system: BT474; test: Cytotoxicity assay (SRB), BT474; format: cell-based; conditions: Homo sapiens, BT-474, 144 h, read-out: In Vitro Cellular Activity IC50 BT474
Method in brief: as §2

[8] = In Vitro Enzyme Assays, read-out: CDK2 IC50
[9] = In Vitro Enzyme Assay, cyclin E/CDK2, read-out: CDK2 IC50

T3 sequence (P11802 whole entry, species assumed): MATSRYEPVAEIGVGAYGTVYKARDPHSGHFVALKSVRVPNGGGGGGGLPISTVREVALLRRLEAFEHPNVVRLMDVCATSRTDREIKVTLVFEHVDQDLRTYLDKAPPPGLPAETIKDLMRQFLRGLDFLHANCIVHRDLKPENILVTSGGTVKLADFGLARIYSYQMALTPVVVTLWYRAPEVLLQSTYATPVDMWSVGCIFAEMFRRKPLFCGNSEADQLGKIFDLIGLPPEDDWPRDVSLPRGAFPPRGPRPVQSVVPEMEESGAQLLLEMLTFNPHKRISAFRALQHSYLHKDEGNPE
T3 sequence (P24385 whole entry partner, species assumed): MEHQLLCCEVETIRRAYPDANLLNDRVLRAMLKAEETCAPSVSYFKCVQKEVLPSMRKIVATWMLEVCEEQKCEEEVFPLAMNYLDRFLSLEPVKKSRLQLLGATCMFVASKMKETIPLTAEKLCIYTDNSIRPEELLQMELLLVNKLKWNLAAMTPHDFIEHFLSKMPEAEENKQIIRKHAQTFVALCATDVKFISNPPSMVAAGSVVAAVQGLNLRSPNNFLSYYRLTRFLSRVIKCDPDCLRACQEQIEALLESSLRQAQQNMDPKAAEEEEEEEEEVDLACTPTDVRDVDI
T1 sequence (P06493 whole entry): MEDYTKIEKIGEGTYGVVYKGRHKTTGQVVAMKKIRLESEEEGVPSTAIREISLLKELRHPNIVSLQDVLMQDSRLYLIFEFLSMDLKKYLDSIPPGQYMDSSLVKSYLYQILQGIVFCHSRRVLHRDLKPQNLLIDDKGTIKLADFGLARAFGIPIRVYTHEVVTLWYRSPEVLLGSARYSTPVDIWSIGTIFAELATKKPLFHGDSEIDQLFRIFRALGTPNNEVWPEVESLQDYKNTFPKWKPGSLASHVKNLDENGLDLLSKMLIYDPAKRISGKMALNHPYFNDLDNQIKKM
T1 sequence (P14635 whole entry partner): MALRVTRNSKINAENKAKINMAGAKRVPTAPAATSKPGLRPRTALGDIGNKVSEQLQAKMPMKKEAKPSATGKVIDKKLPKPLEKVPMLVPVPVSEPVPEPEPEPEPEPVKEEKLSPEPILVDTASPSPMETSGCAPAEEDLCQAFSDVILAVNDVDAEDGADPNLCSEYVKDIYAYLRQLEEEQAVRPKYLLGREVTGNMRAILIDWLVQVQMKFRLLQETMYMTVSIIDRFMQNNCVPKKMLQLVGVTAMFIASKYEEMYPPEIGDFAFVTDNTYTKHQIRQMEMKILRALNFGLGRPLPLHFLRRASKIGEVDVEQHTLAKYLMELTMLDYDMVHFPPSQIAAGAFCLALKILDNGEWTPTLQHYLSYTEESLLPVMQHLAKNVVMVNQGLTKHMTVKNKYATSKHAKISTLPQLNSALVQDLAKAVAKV

| melting point | IC50 [1] | IC50 [2, 8] | IC50 [3] | Structure (SMILES) | IC50 ([4]; MCF-7 cells, SRB, three days) | IC50 ([5]; LoVo cells, SRB, three days) | IC50 ([6]; HCT116 cells, SRB, three days) | IC50 ([7]; BT474 cells, SRB, 6 days) | IC50 [4] | IC50 [5] | IC50 [6] | IC50 [2, 9] | IC50 [7] |
| --- | --- | --- | --- | --- | --- | --- | --- | --- | --- | --- | --- | --- | --- |
| 273 to 274 °C | > 50 µM | > 50 µM | 14800 nM | COc1cc2c(cc1OC)/C(=C/Nc1ccc(N3CCN(C)CC3)cc1)C(=O)NC2=O [Example 37, (4Z)-6,7-Dimethoxy-4-({[4-(-methylpiperazin-1-yl)phenyl}amino)methylene] isoquinolin-1,3(2H,4H)-dione] | – | – | – | – | – | – | – | – | – |
| 184 to 186 °C | > 50 µM | – | 1100 nM | CC(=O)Oc1ccc(CN/C=C2\C(=O)NC(=O)c3ccccc32)cc1OC(C)=O [Example 47, 2-(Acetyloxy)-4-({[(Z)-(1,3-dioxo-2,3-dihydroisoquinolin-4(1H)-ylidene)methyl]amino}-methyl)phenyl acetate] | 20 µM | 22 µM | 21 µM | – | – | – | – | – | – |
| 336 to 337 °C | 31.8 µM | 19.4 µM | 12400 nM | O=C1NC(=O)c2ccc(Br)cc2/C1=C/Nc1ccc(O)c(C(=O)O)c1 [Example 58, 5-{[(Z)-(6-Bromo-1,3-dioxo-2,3-dihydroisoquinolin-4(1H)-ylidene)methyl]amino}-2-hydroxybenzoic acid] | – | – | – | – | – | – | – | – | – |
| 272 to 273 °C | 37.2 µM | – | > 50000 nM | O=C1NC(=O)c2ccccc2/C1=C/NCc1ccc(O)cc1 [Example 61] | > 50 µM | > 50 µM | 27.6 µM | > 50 µM | – | – | – | – | – |
| 296 to 297 °C | > 50 µM | 4.5 µM | 31100 nM | O=C1NC(=O)c2ccc(Br)cc2/C1=C/NCc1ccc(O)cc1 [Example 62] | – | – | – | – | – | – | – | – | – |
| 261 to 262 °C | > 50 µM | – | 780 nM | O=C1NC(=O)c2ccccc2/C1=C/NCc1cccc(O)c1 [Example 63] | > 50 µM | > 50 µM | > 50 µM | 49 µM | – | – | – | – | – |
| 266 to 267 °C (dec.) | > 50 µM | – | 21200 nM | CN(C)C(=O)c1ccc2c(c1)/C(=C/Nc1ccc(CN3CCCCC3)cc1)C(=O)NC2=O [Example 66, (4Z)-N,N-Dimethyl-1,3-dioxo-4-({[4-(piperidinylmethyl)phenyl]amino}methylene)-1,2,3,4-tetrahydroisoquinoline-6-carboxamide] | 4.3 µM | 4.2 µM | 3.4 µM | 3.1 µM | – | – | – | – | – |
| 200 to 201 °C | > 50 µM | – | 170 nM | COc1ccc(CN/C=C2\C(=O)NC(=O)c3ccc(F)cc32)cc1O [Example 68] | > 50 µM | 19 µM | 15 µM | 14 µM | – | – | – | – | – |
| 272 to 275 °C (dec.) | > 50 µM | – | 2000 nM | COc1ccc2c(c1)C(=CNc1ccc(CN3CCCCC3)cc1)C(=O)NC2=O [Example 91, 6-Methoxy-4-[(4-piperidin-1-ylmethyl-phenylamino)-methylene]-4H-isoquinoline-1,3-dione] | 16 µM | 37 µM | 27 µM | 40 µM | – | – | – | – | – |
| 254 to 255 °C | 2.5 µM | – | < 5 nM | COc1ccc(CN/C=C2\C(=O)NC(=O)c3ccc(-c4ccoc4)cc32)cc1O [Example 92] | 3.8 µM | 3.2 µM | 2.5 µM | 2 µM | – | – | – | – | – |
| 204 to 205 °C | > 50 µM | – | 37 nM | O=C1NC(=O)c2ccc(-c3ccoc3)cc2/C1=C/Nc1ccc(CN2CCCCC2)cc1 [Example 93] | – | 1.8 µM | – | 1 µM | – | – | – | – | – |
| 235 to 236 °C | > 50 µM | – | 27 nM | O=C1NC(=O)c2ccc(-c3cccc(O)c3)cc2/C1=C/Nc1ccc(CN2CCCCC2)cc1 [Example 96] | 2 µM | 1.8 µM | 1.3 µM | 3.4 µM | – | – | – | – | – |
| 247 to 248 °C | > 50 µM | – | 130 nM | O=C1NC(=O)c2ccc(-c3cccnc3)cc2/C1=C/Nc1ccc(CN2CCCCC2)cc1 [Example 102] | > 50 µM | 43.3 µM | 11.5 µM | > 50 µM | – | – | – | – | – |
| 244 to 245 °C | > 50 µM | – | 41 nM | O=C1NC(=O)c2ccc(-c3ccc(O)cc3)cc2/C1=C/Nc1ccc(CN2CCCCC2)cc1 [Example 103] | – | 2.3 µM | – | 3.7 µM | – | – | – | – | – |
| 216 to 217 °C | > 50 µM | – | 920 nM | O=C1NC(=O)c2ccc(N3CCOCC3)cc2/C1=C/Nc1ccc(CN2CCCCC2)cc1 [Example 120, (4Z)-6-Morpholin-4-yl-4-({[4-(piperidin-1-ylmethyl)phenyl]amino}methylene)isoquinoline-1,3(2H,4H)-dione] | 21 µM | 7.7 µM | 4.3 µM | 8 µM | – | – | – | – | – |
| 192 to 193 °C | > 50 µM | – | 34700 nM | CN1CCN(c2ccc3c(c2)/C(=C/Nc2ccc(CN4CCCCC4)cc2)C(=O)NC3=O)CC1 [Example 123] | 7.2 µM | 4.4 µM | 3.4 µM | 9.4 µM | – | – | – | – | – |
| 252 to 253 °C | > 50 µM | – | 20 nM | CC(=O)Nc1ccc(CN/C=C2\C(=O)NC(=O)c3ccc(Br)cc32)cc1O [Example 142, N-[4-({[(Z)-(6-Bromo-1,3-dioxo-2,3-dihydroisoquinolin-4(1H)-′ylidene)methyl]amino}methyl)-2-hydroxyphenyl]acetamide] | 31.1 µM | 2 µM | 1.2 µM | 0.66 µM | – | – | – | – | – |
| > 300 °C | 25.3 µM | – | 17300 nM | CC1CN(c2ccc(N/C=C3\C(=O)NC(=O)c4ccc([N+](=O)[O-])cc43)cc2)CC(C)N1 (stereo not shown) [Example 235, (4Z)-4-({[4-(3,5-Dimethylpiperazin-1-yl)phenyl]amino}methylene)-6-nitroisoquinoline-1,3(2H,4H)-dione] | 3.3 µM | 3.5 µM | 1.4 µM | 3 µM | – | – | – | – | – |
| 200 to 201 °C | > 50 µM | – | – | CN1CCN(c2ccc(N/C=C3\C(=O)NC(=O)c4ccc(-c5ccoc5)cc43)cn2)CC1 [Example 249, (4Z)-6-(3-Furyl)-4-({[6-(4-methylpiperazin-1-yl)pyridin-3-′yl]amino}methylene)isoquinoline-1,3(2H,4H)-dione] | – | 2.4 µM | – | 2 µM | – | – | – | – | – |
| 195 to 196 °C | > 50 µM | – | 310 nM | O=C1NC(=O)c2ccc(-c3ccc(F)cc3)cc2/C1=C/Nc1ccc(CN2CCCCC2)cc1 [Example 251, (4Z)-6-(4-Fluorophenyl)-4-({[4-(piperidin-1-′ylmethyl)phenyl]amino}methylene)isoquinoline-1,3(2H,4H)-dione] | 0.55 µM | 1.7 µM | 1 µM | 1.1 µM | – | – | – | – | – |

| Structure (SMILES) | melting point | IC50 [1] | IC50 [2, 8] | IC50 [3] | IC50 ([4]; MCF-7 cells, SRB, three days) | IC50 ([5]; LoVo cells, SRB, three days) | IC50 ([6]; HCT116 cells, SRB, three days) | IC50 ([7]; BT474 cells, SRB, 6 days) | IC50 [4] | IC50 [5] | IC50 [6] | IC50 [2, 9] | IC50 [7] |
| --- | --- | --- | --- | --- | --- | --- | --- | --- | --- | --- | --- | --- | --- |
| CC(=O)Nc1ccc2c(c1)/C(=C/Nc1ccc(CN3CCCCC3)cc1)C(=O)NC2=O [Example 48] | > 320 °C | > 50 µM | 8.1 µM | – | – | – | – | – | – | – | – | – | – |
| CN1CCN(c2ccc(N/C=C3\C(=O)NC(=O)c4ccc(C(=O)N(C)C)cc43)cc2)CC1 [Example 65, (4Z)-N,N-Dimethyl-4-({[4-(4-methylpiperazin-1-yl)phenyl]amino}methylene)-1,3-dioxo-1,2,3,4-tetrahydroisoquinoline-6-carboxamide] | > 300 °C | > 50 µM | 47 µM | 41000 nM | – | – | – | – | – | – | – | – | – |
| CC(C)(C)c1ccc2c(c1)/C(=C/NCc1cc(O)c(-c3ccoc3)cn1)C(=O)NC2=O [Example 532, 6-tert-Butyl-4-{[(5-furan-3-yl-4-hydroxy-pyridin-2-ylmethyl)-amino]-methylene}-4H-isoquinoline-1,3-dione] | 215 to 230 °C (dec.) | – | – | – | – | – | – | – | 1.4 µM | 0.27 µM | 0.48 µM | 1.9 µM | 0.1 µM |
| O=C1NC(=O)c2ccc(C3CCCC3)cc2/C1=C/NCc1cc(O)c(-c2ccoc2)cn1 [Example 537] | 279 to 283 °C (dec.) | – | – | – | – | – | – | – | 0.83 µM | 0.3 µM | 0.81 µM | 1.3 µM | 0.13 µM |
